For 13 compounds, calcium response, lower = inhibition and EC50 results are on record in PubChem BioAssay AID624166 (Johns Hopkins Ion Channel Center, 2012).

Calls of active or inactive are those of the source.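 Rule for the calls: active = raises the calcium signal in non-induced parental cells at some tested dose and a dose-response curve can be fitted; inactive = no activation at any dose, or no dose-response curve.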

Experiment [1] is described as follows: M3R signalling without RGS4 expression – cell-based, HEK293 M3R, non-induced RGS4, SAR compounds, counter-screen for RGS4 potentiator project, SAR follow-up (AID 624166). The conditions noted are these: HEK293 M3R non-induced RGS4, carbachol calcium Fluo4; at 33.3 µM (top of the series). A general note: A counterscreen serves to expose hits that act by an unwanted route or on another target.

For experiment [2], the system named is HEK293 M3R non-induced RGS4, carbachol calcium Fluo4. Described as above.

For the compound `Cc1ccc(NC(=O)c2cc(-c3cccs3)nc3ccccc23)nc1`, the calcium response, lower = inhibition in experiment [1] is 52.7 (inactive). The term EC50 denotes the concentration needed to bring the measured effect to its halfway point. As for `CCn1cc(CN2CCC(n3nccc3NC(=O)c3ccc(OC)cc3)CC2)cn1`, in experiment [2], the EC50 is 9.27 µM. Same read-out and setting: to `CN(Cc1ccc(F)cc1)C(=O)C(c1ccccc1)c1ccccc1` belongs 3.18 µM; to `CC(C)Cn1c(-c2ccc(F)cc2)n[nH]c1=S`, 4.11 µM.

Turning to `O=C(CNC1CCCCCC1)Nc1ccc(S(=O)(=O)NC2CC2)cc1`, the calcium response, lower = inhibition in experiment [1] is 19.6 (inactive). Turning to `COC(=O)c1cccc(Nc2nc(-c3cccnc3)nc3ccccc23)c1`, the EC50 in experiment [2] is 5.82 µM. On the same count and under the same terms, to `Cc1ccc(S(=O)(=O)c2ccc(Oc3cccc(C)c3)cc2)cc1` belongs 2.7 µM. For `COC(=O)C1CCCN(C(=O)c2cc(-c3ccc(C)cc3)nc3ccccc23)C1` (stereo not drawn), the EC50 in experiment [2] was 16.1 µM. Still for that read-out and setting: to `CCCCn1c(-c2csc(CCC)c2)n[nH]c1=S` belongs 3.34 µM. Regarding `O=C(Nc1ccccc1N1CCN(C(=O)c2ccccc2)CC1)c1ccc(Cl)o1`, in experiment [1], the calcium response, lower = inhibition is 17.2 (inactive).

Take `S=c1[nH]nc(-c2ccc(Cl)cc2)n1CC1CCCO1` (stereo not drawn): the EC50 in experiment [2] is 7.62 µM. As for `O=C(CNc1ccccc1)c1ccc([N+](=O)[O-])cc1`, the calcium response, lower = inhibition in experiment [1] was 24.6 (inactive).

In the case of `CCN1CCCC1CNCc1ccccc1OCc1ccc(F)cc1` (stereo not drawn), the EC50 in experiment [2] was 10.8 µM.
